Data: the supplement of paper PMC13380429

What was measured:
Details in all cases: 72 h
Caco-2 [1] = test: cell viability relative to DMSO; higher = less toxic
Calu-3 [2] = test: as above
HepG2 [3] = test: as above
U2OS [4] = test: as above
Vero E6 [5] = test: as above
Caco-2 [6] = test: relative viability EC50 (midpoint between 100% and the lowest measured viability); higher = less toxic
Calu-3 [7] = test: as above
HepG2 [8] = test: as above
U2OS [9] = test: as above
Vero E6 [10] = test: as above
Caco-2 [11] = test: drug sensitivity score (DSS) for viability; higher = more toxic; extreme values may be limits of the assay
Calu-3 [12] = test: as above
HepG2 [13] = test: as above
U2OS [14] = test: as above
Vero E6 [15] = test: as above

Structure (SMILES)	cell viability (Caco-2 [1]; 1 nM) [%]	cell viability (Caco-2 [1]; 10 nM) [%]	cell viability (Caco-2 [1]; 100 nM) [%]	cell viability (Caco-2 [1]; 1000 nM) [%]	cell viability (Caco-2 [1]; 10000 nM) [%]	cell viability (Calu-3 [2]; 1 nM) [%]	cell viability (Calu-3 [2]; 10 nM) [%]	cell viability (Calu-3 [2]; 100 nM) [%]	cell viability (Calu-3 [2]; 1000 nM) [%]	cell viability (Calu-3 [2]; 10000 nM) [%]	cell viability (HepG2 [3]; 1 nM) [%]	cell viability (HepG2 [3]; 10 nM) [%]	cell viability (HepG2 [3]; 100 nM) [%]	cell viability (HepG2 [3]; 1000 nM) [%]	cell viability (HepG2 [3]; 10000 nM) [%]	cell viability (U2OS [4]; 1 nM) [%]	cell viability (U2OS [4]; 10 nM) [%]	cell viability (U2OS [4]; 100 nM) [%]	cell viability (U2OS [4]; 1000 nM) [%]	cell viability (U2OS [4]; 10000 nM) [%]	cell viability (Vero E6 [5]; 1 nM) [%]	cell viability (Vero E6 [5]; 10 nM) [%]	cell viability (Vero E6 [5]; 100 nM) [%]	cell viability (Vero E6 [5]; 1000 nM) [%]	cell viability (Vero E6 [5]; 10000 nM) [%]	relative viability EC50 (Caco-2 [6]) [µM]	relative viability EC50 (Calu-3 [7]) [µM]	relative viability EC50 (HepG2 [8]) [µM]	relative viability EC50 (U2OS [9]) [µM]	relative viability EC50 (Vero E6 [10]) [µM]	drug sensitivity score (Caco-2 [11])	drug sensitivity score (Calu-3 [12])	drug sensitivity score (HepG2 [13])	drug sensitivity score (U2OS [14])	drug sensitivity score (Vero E6 [15])
Cc1ncc([N+](=O)[O-])n1CCO [metronidazole]	100	94.4	101	94.9	98.4	97.3	95.9	109	97	102	97.7	102	111	99.8	105	104	97.6	98.9	96.9	98	96.8	99.7	96.2	93.5	100	> 10	> 10	> 10	> 10	> 10	0	0	0	0	0
CCOC(=O)Nc1ccc2c(c1)N(C(=O)CCN1CCOCC1)c1ccccc1S2 [moracizine]	101	109	96.3	96.8	80.8	103	95.3	98.8	95.3	98.3	94.6	92.6	97.8	91.6	99.4	98.4	104	101	99	96.6	97.1	101	96.9	98.8	96.2	> 10	> 10	> 10	> 10	> 10	0.9	0	0	0	0
CN1CCOC(c2ccccc2)c2ccccc2C1 (stereo not given) [nefopam]	86.6	102	95.1	99.5	91.9	105	108	96.7	91	101	95.8	104	96.3	101	106	104	99.3	105	100	98.7	95.9	103	98.8	102	95.1	> 10	> 10	> 10	> 10	> 10	0	0	0	0	0
CC(=O)Nc1ncc([N+](=O)[O-])s1 [nithiamide]	96.7	97.8	103	105	94.1	97.5	98.2	102	110	101	108	91.7	95.4	92.1	96.3	99.2	104	97.8	103	102	101	99.5	100	93.4	98	> 10	> 10	> 10	> 10	> 10	0	0	0	0	0
NC(=O)N/N=C/c1ccc([N+](=O)[O-])o1 [nitrofurazone]	93.8	101	98.8	101	87.2	104	96.9	105	89	95.1	92.5	101	110	108	87.4	101	98.1	103	100	103	96.8	101	95.1	97.7	106	> 10	> 10	> 10	> 10	> 10	0.1	0.2	0	0	0
O=C1c2cccc3c2[C@H](CCC3)CN1[C@@H]1CN2CCC1CC2 [palonosetron]	105	97.5	90.8	96.8	102	106	99	91.3	100	98.8	94.4	90.2	88.6	96.1	88.9	98.9	97.5	99.5	100	94.2	99.7	103	103	99.3	82.4	> 10	> 10	> 10	> 10	> 10	0	0	0	0	0.5
NC(=O)NC(=O)Cc1ccccc1 [phenacemide]	102	94.4	95.6	100	94.8	102	97.2	101	87.7	104	96.4	103	95.5	107	102	104	102	102	98.8	97.6	97.5	101	96.8	99.7	96.9	> 10	> 10	> 10	> 10	> 10	0	0	0	0	0
